# Laboratory results: patent US9145399B2, “Substituted bicyclic triazole derivatives as gamma secretase modulators” (Janssen Pharmaceuticals, Inc., priority 2010, dated 2015)
# Structures can show the parent of a compound that is named as a salt.
# Legend:
# [1] = test system: Aβtotal; experiment: Screening for γ-secretase-modulating activity in SKNBE2 cells carrying APP 695 wild type: Aβtotal in cell supernatant (Alphalisa); assay type: cell-based; settings: overnight incubation
# Description: (§1) Pharmacology A) Screening of the Compounds of the Invention for γ-Secretase-Modulating Activity
# (§2) Screening was carried out using SKNBE2 cells carrying the APP 695—wild type, grown in Dulbecco's Modified Eagle's Medium/Nutrient mixture F-12 (DMEM/NUT-mix F-12) (HAM) provided by Invitrogen (cat no. 10371-029) containing 5% Serum/Fe supplemented with 1% non-essential amino acids, 1-glutamine 2 mM, Hepes 15 mM, penicillin 50 U/ml (units/ml) en streptomycin 50 μg/ml. Cells were grown to near confluency.
# (§3) The screening was performed using a modification of the assay as described in Citron et al (1997) Nature Medicine 3: 67. Briefly, cells were plated in a 384-well plate at 10^4 cells/well in Ultraculture (Lonza, BE12-725F) supplemented with 1% glutamine (Invitrogen, 25030-024), 1% non-essential amino acid (NEAA), penicillin 50 U/ml en streptomycin 50 μg/ml in the presence of test compound at different test concentrations. The cell/compound mixture was incubated overnight at 37° C., 5% CO2. The next day the media were assayed by two sandwich immuno-assays, for Aβ42 and Aβtotal.
# (§4) Aβtotal and Aβ42 concentrations were quantified in the cell supernatant using the Aphalisa technology (Perkin Elmer). Alphalisa is a sandwich assay using biotinylated antibody attached to streptavidin coated donorbeads and antibody conjugated to acceptor beads. In the presence of antigen, the beads come into close proximity. The excitation of the donor beads provokes the release of singlet oxygen molecules that trigger a cascade of energy transfer in the acceptor beads, resulting in light emission. To quantify the amount of Aβ42 in the cell supernatant, monoclonal antibody specific to the C-terminus of Aβ42 (JRF/cAβ42/26) was coupled to the receptor beads and biotinylated antibody specific to the N-terminus of Aβ (JRF/AβN/25) was used to react with the donor beads. T quantify the amount of Aβtotal in the cell supernatant, monoclonal antibody specific to the N-terminus of Aβ (JRF/AβN/25) was coupled to the receptor beads and biotinylated antibody specific to the mid region of Aβ (biotinylated 4G8) was used to react with the donor beads.
# (§5) To obtain the values reported in Table 3, the data are calculated as percentage of the maximum amount of amyloid Beta 42 measured in the absence of the test compound. The sigmoidal dose response curves were analyzed using non-linear regression analysis with percentage of the control plotted against the log concentration of the compound. A 4-parameter equation was used to determine the IC50.
# [2] = test system: Aβ42; experiment: Screening for γ-secretase-modulating activity in SKNBE2 cells carrying APP 695 wild type: Aβ42 in cell supernatant (Alphalisa); assay type: cell-based; settings: overnight incubation
# Description: as §1, §2, §3, §4, §5
# [3] = Homo sapiens, SKNBE2, SKNBE2 cells carrying APP 695 wild type
# [4] = SKNBE2 cells carrying APP 695 wild type
Compound,IC50 ([1]; Homo sapiens),"IC50 [2, 3]",IC50 [1],"IC50 [2, 4]"
"COc1cc(Nc2nc3c(-c4ccc(F)cc4C(F)(F)F)cccn3n2)ccc1-n1cnc(C)n1 [Compound 4, 8-[4-fluoro-2-(trifluoromethyl)phenyl]-N-[3-methoxy-4-(3-methyl-1H-1,2,4-triazol-1-yl)phenyl]-[1,2,4]triazolo[1,5-a]pyridin-2-amine]",> 10 µM,0.022 µM,–,–
"COc1cc(Nc2nc3n(n2)CCCC3c2ccc(F)cc2)ccc1-n1cnc(C)c1 (stereo not drawn) [Compound 5, 8-(4-fluorophenyl)-5,6,7,8-tetrahydro-N-[3-methoxy-4-(4-methyl-1H-imidazol-1-yl)phenyl]-[1,2,4]triazolo[1,5-a]pyridin-2-amine]",> 10 µM,0.018 µM,–,–
"COc1cc(Nc2nc3c(-c4ccc(F)cc4C)nccn3n2)ccc1-n1cnc(C)c1 [Compound 10, 8-(4-fluoro-2-methylphenyl)-N-[3-methoxy-4-(4-methyl-1H-imidazol-1-yl)phenyl]-[1,2,4]triazolo[1,5-a]pyrazin-2-amine]",> 10 µM,0.009 µM,–,–
"COc1nc(Nc2nc3n(n2)CCCC3c2ccc(F)cc2)ccc1-c1ccnc(C)c1 (stereo not drawn) [Compound 16, 8-(4-fluorophenyl)-5,6,7,8-tetrahydro-N-(2-methoxy-2′-methyl[3,4′-bipyridin]-6-yl)-[1,2,4]triazolo[1,5-a]pyridin-2-amine]",> 10 µM,0.363 µM,–,–
"COc1nc(Nc2nc3n(n2)CCCC3c2ccccc2C(F)(F)F)ccc1-n1cnc(C)c1 (stereo not drawn) [Compound 17, 5,6,7,8-tetrahydro-N-[6-methoxy-5-(4-methyl-1H-imidazol-1-yl)-2-pyridinyl]-8-[2-(trifluoromethyl)phenyl]-[1,2,4]triazolo[1,5-a]pyridin-2-amine]",> 10 µM,0.295 µM,–,–
"COc1nc(Nc2nc3n(n2)CCCC3c2ccccc2Cl)ccc1-n1cnc(C)c1 (stereo not drawn) [Compound 18, 8-(2-chlorophenyl)-5,6,7,8-tetrahydro-N-[6-methoxy-5-(4-methyl-1H-imidazol-1-yl)-2-pyridinyl]-[1,2,4]triazolo[1,5-a]pyridin-2-amine]",> 10 µM,0.112 µM,–,–
"COc1cc(Nc2nc3c(-c4ccc(F)cc4C)cccn3n2)ccc1-n1cnc(C)c1 [Compound 19, 8-(4-fluoro-2-methylphenyl)-N-[3-methoxy-4-(4-methyl-1H-imidazol-1-yl)phenyl]-[1,2,4]triazolo[1,5-a]pyridin-2-amine]",3.72 µM,0.004 µM,–,–
"COc1cc(Nc2nc3cc(-c4ccccc4C(F)(F)F)ccn3n2)ccc1-n1cnc(C)c1 [Compound 21, N-[3-methoxy-4-(4-methyl-1H-imidazol-1-yl)phenyl]-7-[2-(trifluoromethyl)phenyl]-[1,2,4]triazolo[1,5-a]pyridin-2-amine]",> 10 µM,0.115 µM,–,–
"Cc1ncoc1-c1ccc(Nc2nc3c(-c4ccccc4C(F)(F)F)cccn3n2)cc1 [Compound 24, N-[4-(4-methyl-5-oxazolyl)phenyl]-8-[2-(trifluoromethyl)phenyl]-[1,2,4]triazolo[1,5-a]pyridin-2-amine]",> 10 µM,0.126 µM,–,–
"COc1cc(Nc2nc3n(n2)CCCC3c2ccccc2Cl)ccc1-n1cnc(C)c1 (stereo not drawn) [Compound 27, 8-(2-chlorophenyl)-5,6,7,8-tetrahydro-N-[3-methoxy-4-(4-methyl-1H-imidazol-1-yl)phenyl]-[1,2,4]triazolo[1,5-a]pyridin-2-amine]",8.51 µM,0.014 µM,–,–
"COc1cc(N(C)c2nc3n(n2)CCCC3c2ccccc2C(F)(F)F)ccc1-n1cnc(C)c1 (stereo not drawn) [Compound 33, 5,6,7,8-tetrahydro-N-[3-methoxy-4-(4-methyl-1H-imidazol-1-yl)phenyl]-N-methyl-8-[2-(trifluoromethyl)phenyl]-[1,2,4]triazolo[1,5-a]pyridin-2-amine HCl]",> 10 µM,4.47 µM,–,–
"COc1cccc(C2CCCn3nc(Nc4ccc(-n5cnc(C)c5)c(OC)c4)nc32)c1 (stereo not drawn) [Compound 35, 5,6,7,8-tetrahydro-N-[3-methoxy-4-(4-methyl-1H-imidazol-1-yl)phenyl]-8-(3-methoxyphenyl)-[1,2,4]triazolo[1,5-a]pyridin-2-amine.2HCl.H2O]",–,–,> 10 µM,0.031 µM
"COc1cc(C(=O)Nc2nc3n(n2)CCCC3c2ccc(F)cc2)ccc1-n1cnc(C)c1 (stereo not drawn) [Compound 36, N-[8-(4-fluorophenyl)-5,6,7,8-tetrahydro[1,2,4]triazolo[1,5-a]pyridin-2-yl]-3-methoxy-4-(4-methyl-1H-imidazol-1-yl)-benzamide]",> 10 µM,0.501 µM,–,–
"COc1cccc(C2CCCn3nc(Nc4ccc(-c5ccnc(C)c5)c(OC)c4)nc32)c1 (stereo not drawn) [Compound 40, 5,6,7,8-tetrahydro-N-[3-methoxy-4-(2-methyl-4-pyridinyl)phenyl]-8-(3-methoxyphenyl)-[1,2,4]triazolo[1,5-a]pyridin-2-amine.1.8 HCl.0.9H2O]",–,–,> 10 µM,0.039 µM
"Cc1cc(-c2ccc(Nc3nc4n(n3)CCCC4c3ccccc3C(F)(F)F)cc2)c(C)cn1 (stereo not drawn) [Compound 45, N-[4-(2,5-dimethyl-4-pyridinyl)phenyl]-5,6,7,8-tetrahydro-8-[2-(trifluoromethyl)phenyl]-[1,2,4]triazolo[1,5-a]pyridin-2-amine]",> 10 µM,0.145 µM,–,–
"COc1cc(Nc2nc3n(n2)CCC(c2ccccc2C(F)(F)F)C3)ccc1-n1cnc(C)c1 (stereo not drawn) [Compound 51, 5,6,7,8-tetrahydro-N-[3-methoxy-4-(4-methyl-1H-imidazol-1-yl)phenyl]-7-[2-(trifluoromethyl)phenyl]-[1,2,4]triazolo[1,5-a]pyridin-2-amine]",> 10 µM,0.062 µM,–,–
"COc1cc(Nc2nc3n(n2)CCC(c2ccccc2C(F)(F)F)C3)ccc1-c1ccnc(C)c1 (stereo not drawn) [Compound 62, 5,6,7,8-tetrahydro-N-[3-methoxy-4-(2-methyl-4-pyridinyl)phenyl]-7-[2-(trifluoromethyl)phenyl]-[1,2,4]triazolo[1,5-a]pyridin-2-amine HCl]",> 10 µM,0.123 µM,–,–
"COc1cc(Nc2nc3c(-c4cc(C(F)(F)F)ccc4F)cccn3n2)ccc1-n1cnc(C)c1 [Compound 63, 8-[2-fluoro-5-(trifluoromethyl)phenyl]-N-[3-methoxy-4-(4-methyl-1H-imidazol-1-yl)phenyl]-[1,2,4]triazolo[1,5-a]pyridin-2-amine]",8.13 µM,0.019 µM,–,–
"COc1cc(NC(=O)c2nc3c(-c4ccccc4Cl)cccn3n2)ccc1-n1cnc(C)c1 [Compound 72, 8-(2-chlorophenyl)-N-[3-methoxy-4-(4-methyl-1H-imidazol-1-yl)phenyl]-[1,2,4]triazolo[1,5-a]pyridine-2-carboxamide]",4.57 µM,0.023 µM,–,–
"COc1cc(Nc2nc3c(-c4ccc(F)cc4)c(C)ccn3n2)ccc1-c1ccnc(C)c1 [Compound 74, 8-(4-fluorophenyl)-N-[3-methoxy-4-(2-methyl-4-pyridinyl)phenyl]-7-methyl-[1,2,4]triazolo[1,5-a]pyridin-2-amine]",7.41 µM,0.015 µM,–,–
"Cc1cc(-c2ccc(Nc3nc4n(n3)CCOC4c3ccccc3C(F)(F)F)cc2)ccn1 (stereo not drawn) [Compound 85, 5,6-dihydro-N-[4-(2-methyl-4-pyridinyl)phenyl]-8-[2-(trifluoromethyl)phenyl]-8H-[1,2,4]triazolo[5,1-c][1,4]oxazin-2-amine]",> 10 µM,0.044 µM,–,–
"Cc1cc(-c2ccc(Nc3nc4n(n3)CCOC4c3ccccc3C(F)(F)F)cc2F)ccn1 (stereo not drawn) [Compound 86, N-[3-fluoro-4-(2-methyl-4-pyridinyl)phenyl]-5,6-dihydro-8-[2-(trifluoromethyl)phenyl]-8H-[1,2,4]triazolo[5,1-c][1,4]oxazin-2-amine]",> 10 µM,0.048 µM,–,–
"Cc1cc(-c2ccc(Nc3nc4n(n3)CCOC4c3ccccc3Cl)cc2F)ccn1 (stereo not drawn) [Compound 88, 8-(2-chlorophenyl)-N-[3-fluoro-4-(2-methyl-4-pyridinyl)phenyl]-5,6-dihydro-8H-[1,2,4]triazolo[5,1-c][1,4]oxazin-2-amine]",9.33 µM,0.036 µM,–,–
"COc1cc(Nc2nc3n(n2)CCCC3c2ccc(C(F)(F)F)cc2)ccc1-c1ccnc(C)c1 (stereo not drawn) [Compound 89, 5,6,7,8-tetrahydro-N-[3-methoxy-4-(2-methyl-4-pyridinyl)phenyl]-8-[4-(trifluoromethyl)phenyl]-[1,2,4]triazolo[1,5-a]pyridin-2-amine]",9.12 µM,0.032 µM,–,–
